pIC50: −log10 of the molar value.
What follows are compounds tested against PRMT5/MEP50 protein complex (Homo sapiens (Human), UniProt O14744) (assay: PRMT5 biochemical assay (3H-SAM methylation of H4(1-21) peptide, filter plate scintillation)). Details: 10 nM PRMT5/MEP50 complex, 200 nM H4(1-21) peptide, 1 uM SAM, 25 minute incubation at room temperature.
Protocol: Biochemical Assay Methods
Compounds were solubilized in DMSO and serially diluted, using 3-fold dilutions, into 100% DMSO at a concentration 50-fold greater than the desired assay concentration. Following dilution, 1 ul was added to an empty 96-well microtiter plate. PRMT5/MEP50 protein complex was combined with H4(1-21) peptide ([…]) in PRMT5 assay buffer (50 mM Tris pH 8.5, 50 mM NaCl, 5 mM MgCl2, 1 mM EDTA, 1 mM TCEP) and 44 ul was added to the microtiter plate containing compound. S-Adenosyl-L-methionine (SAM) was prepared by combining ^3H labelled SAM with unlabelled SAM in PRMT5 assay buffer such that the final SAM concentration was 10 uM and the specific activity was 0.2 uCi/ul. The reaction was initiated by adding 5 ul of SAM stock to the microtiter plate. The final reaction conditions were 10 nM PRMT5/MEP50 complex, 200 nM peptide and 1 uM SAM. Following a 25 minute incubation at room temperature, the reaction was stopped with the addition of 100 uL of 20% TCA. The 3H-peptide product was captured using a 96-well filter plate (MSIPN4B, Millipore) and washed 5 times with PBS buffer. Scintillation fluid (100 ul) was added to the dried filter plate and counted in a liquid scintillation counter. IC50 values were determined by fitting the data to the standard 4-parameter dose response equation using Pfizer proprietary software.
Results for the biochemical assay of examples are summarized in Table 1, shown as IC50 values in μM.

PRMT5/MEP50 protein complex, sequence (O14744 other isoform, or with tags, fused parts or gaps): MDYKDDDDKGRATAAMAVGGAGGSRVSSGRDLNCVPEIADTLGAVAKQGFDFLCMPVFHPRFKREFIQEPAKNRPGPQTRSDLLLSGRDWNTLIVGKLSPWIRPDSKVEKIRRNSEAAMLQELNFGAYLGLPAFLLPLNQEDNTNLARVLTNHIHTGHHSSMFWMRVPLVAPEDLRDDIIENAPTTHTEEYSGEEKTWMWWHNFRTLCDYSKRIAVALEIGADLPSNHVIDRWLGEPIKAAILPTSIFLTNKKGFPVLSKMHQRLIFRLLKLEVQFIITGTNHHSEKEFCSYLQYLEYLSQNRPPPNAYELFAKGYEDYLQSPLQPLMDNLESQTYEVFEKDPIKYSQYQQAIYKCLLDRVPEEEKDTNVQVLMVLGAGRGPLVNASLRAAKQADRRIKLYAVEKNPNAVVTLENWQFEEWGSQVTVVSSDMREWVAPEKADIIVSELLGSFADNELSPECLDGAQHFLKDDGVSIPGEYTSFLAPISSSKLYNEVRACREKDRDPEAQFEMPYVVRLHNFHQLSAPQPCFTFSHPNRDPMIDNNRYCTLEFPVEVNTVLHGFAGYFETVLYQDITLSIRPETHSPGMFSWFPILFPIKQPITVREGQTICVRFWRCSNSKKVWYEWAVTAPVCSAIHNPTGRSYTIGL
PRMT5/MEP50 protein complex, sequence (Q9BQA1 whole entry partner): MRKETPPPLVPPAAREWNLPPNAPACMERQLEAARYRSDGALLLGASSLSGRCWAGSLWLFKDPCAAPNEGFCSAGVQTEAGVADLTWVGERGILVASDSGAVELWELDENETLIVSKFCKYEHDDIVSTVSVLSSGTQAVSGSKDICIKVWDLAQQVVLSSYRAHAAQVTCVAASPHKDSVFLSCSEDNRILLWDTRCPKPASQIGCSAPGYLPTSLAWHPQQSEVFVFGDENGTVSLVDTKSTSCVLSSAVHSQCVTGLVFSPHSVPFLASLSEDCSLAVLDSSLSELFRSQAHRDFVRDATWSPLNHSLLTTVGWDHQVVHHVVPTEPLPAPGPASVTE

| SMILES | pIC50 |
| --- | --- |
| N#Cc1cccc2c(N[C@@H]3C[C@H](C(O)c4ccc(F)c(F)c4)[C@@H](O)[C@H]3O)ncnc12 (single isomer, unassigned) [Example 29, 4-({(1R;2S;3R;4R)-4-[(3;4-difluorophenyl)(hydroxy)methyl]-2;3-dihydroxycyclopentyl}amino)quinazoline-8-carbonitrile] | < 3.70 |
| Cc1ncnc2c1ccn2[C@@H]1C[C@H]([C@@H](O)c2ccc(Cl)cc2)[C@@H](O)[C@H]1O [Example 12, (1S,2R,3R,5R)-3-[(R)-(4-chlorophenyl) (hydroxy)methyl]-5-(4-methyl-7H-pyrrolo[2,3-d]pyrimidin-7-yl)cyclopentane-1,2-diol] | 6.32 |
| Cc1ncnc2c1ccn2[C@@H]1C[C@H](Oc2ncnc3c2CNCC3)[C@@H](O)[C@H]1O [Example 156, (1S,2S,3R,5S)-3-(4-methyl-7H-pyrrolo[2,3-d]pyrimidin-7-yl)-5-((5,6,7,8-tetrahydropyrido[4,3-d]pyrimidin-4-yl)oxy)cyclopentane-1,2-diol] | 6.97 |
| Cc1ncnc2c1ccn2[C@@H]1C[C@H]([C@@H](O)c2cc(F)c(F)c(F)c2)[C@@H](O)[C@H]1O [Example 14, (1S,2R,3R,5R)-3-[(R)-hydroxy(3,4,5-trifluorophenyl)methyl]-5-(4-methyl-7H-pyrrolo[2,3-d]pyrimidin-7-yl)cyclopentane-1,2-diol] | 6.14 |
| CO[C@H]1C[C@@H](n2ccc3c(C)ncnc32)[C@H](O)[C@@H]1O [Example 60, (1S,2S,3S,5R)-3-methoxy-5-(4-methyl-7H-pyrrolo[2,3-d]pyrimidin-7-yl)cyclopentane-1,2-diol] | < 3.70 |
| Cc1ncnc2c1ccn2[C@@H]1C[C@H](Oc2cccc3c2CCN(C)C3)[C@@H](O)[C@H]1O [Example 81, (1S,2S,3R,5S)-3-(4-methyl-7H-pyrrolo[2,3-d]pyrimidin-7-yl)-5-[(2-methyl-1,2,3,4-tetrahydroisoquinolin-5-yl)oxy]cyclopentane-1,2-diol] | 5.78 |
| Nc1ncnc2c1c(F)cn2[C@@H]1C[C@H](Oc2cccc3c2CNC3)[C@@H](O)[C@H]1O [Example 110, (1S,2S,3R,5S)-3-(4-amino-5-fluoro-7H-pyrrolo[2,3-d]pyrimidin-7-yl)-5-(2,3-dihydro-1H-isoindol-4-yloxy)cyclopentane-1,2-diol] | 8.10 |
| Cc1ncnc2c1ccn2[C@H]1C[C@@H](Oc2ccc(F)cc2C#N)[C@H](O)[C@@H]1O [Example 69, 2-(((1R,2R,3R,4S)-2,3-dihydroxy-4-(4-methyl-7H-pyrrolo[2,3-d]pyrimidin-7-yl)cyclopentyl)oxy)-5-fluorobenzonitrile] | < 3.70 |
| Cc1ncnc2c1ccn2[C@@H]1C[C@H](Oc2cc(OC(C)C)c(F)c3c2CNCC3)[C@@H](O)[C@H]1O [Example 201, (1S,2S,3S,5R)-3-((5-fluoro-6-isopropoxy-1,2,3,4-tetrahydroisoquinolin-8-yl)oxy)-5-(4-methyl-7H-pyrrolo[2,3-d]pyrimidin-7-yl)cyclopentane-1,2-diol] | 6.51 |
| CNCc1cc(F)ccc1O[C@H]1C[C@@H](n2ccc3c(C)ncnc32)[C@H](O)[C@@H]1O [Example 72, (1S,2S,3S,5R)-3-(4-fluoro-2-((methylamino)methyl)phenoxy)-5-(4-methyl-7H-pyrrolo[2,3-d]pyrimidin-7-yl)cyclopentane-1,2-diol] | 7.66 |
| Cc1ncnc2c1ccn2[C@@H]1C[C@H]([C@@H](O)c2cccc3c2CNCC3)[C@@H](O)[C@H]1O [Example 57, (1S,2R,3R,5R)-3-((R)-hydroxy(1,2,3,4-tetrahydroisoquinolin-8-yl)methyl)-5-(4-methyl-7H-pyrrolo[2,3-d]pyrimidin-7-yl)cyclopentane-1,2-diol] | 7.32 |
| Cc1ncc(O[C@H]2C[C@@H](n3ccc4c(C)ncnc43)[C@H](O)[C@@H]2O)c2c1CCNC2 [Example 96, (1S,2S,3S,5R)-3-((1-methyl-5,6,7,8-tetrahydro-2,6-naphthyridin-4-yl)oxy)-5-(4-methyl-7H-pyrrolo[2,3-d]pyrimidin-7-yl)cyclopentane-1,2-diol] | 7.72 |
| Cc1ncnc2c1ccn2[C@@H]1C[C@H](Oc2cc(-c3cnco3)cc3c2CNCC3)[C@@H](O)[C@H]1O [Example 170, (1S,2S,3R,5S)-3-(4-methyl-7H-pyrrolo[2,3-d]pyrimidin-7-yl)-5-((6-(oxazol-5-yl)-1,2,3,4-tetrahydroisoquinolin-8-yl)oxy)cyclopentane-1,2-diol] | 9.00 |
| Cc1ncnc2c1ccn2[C@@H]1C[C@H](Oc2cccc3c2CN(C)C3)[C@@H](O)[C@H]1O [Example 82, (1S,2S,3S,5R)-3-[(2-methyl-2,3-dihydro-1H-isoindol-4-yl)oxy]-5-(4-methyl-7H-pyrrolo[2,3-d]pyrimidin-7-yl)cyclopentane-1,2-diol] | 6.00 |
| CN(c1ncnc(N)n1)[C@@H]1C[C@H]([C@@H](O)c2ccc(F)c(F)c2)[C@@H](O)[C@H]1O [Example 38, (1R,2S,3R,5R)-3-[(4-amino-1,3,5-triazin-2-yl)(methyl)amino]-5-[(R)-(3,4-difluorophenyl)(hydroxy)methyl]cyclopentane-1,2-diol] | 4.80 |
| Cc1cc(O[C@H]2C[C@@H](n3cc(F)c4c(N)ncnc43)[C@H](O)[C@@H]2O)c2c(c1F)CCNC2 [Example 113, (1S,2S,3R,5S)-3-(4-amino-5-fluoro-7H-pyrrolo[2,3-d]pyrimidin-7-yl)-5-((5-fluoro-6-methyl-1,2,3,4-tetahydroisoquinolin-8-yl)oxy)cyclopentane-1,2-diol] | 9.00 |
| Cc1ncnc2c1ccn2[C@@H]1C[C@H](Oc2cc(Cl)c(Cl)cc2OCCN)[C@@H](O)[C@H]1O [Example 151, (1S,2S,3S,5R)-3-(2-(2-aminoethoxy)-4,5-dichlorophenoxy)-5-(4-methyl-7H-pyrrolo[2,3-d]pyrimidin-7-yl)cyclopentane-1,2-diol] | 7.11 |
| Cc1ncnc2c1ccn2[C@@H]1C[C@H](Oc2nc(OC(C)C)c(F)c3c2CNCC3)[C@@H](O)[C@H]1O [Example 193, (1S,2S,3S,5R)-3-((4-fluoro-3-isopropoxy-5,6,7,8-tetrahydro-2,7-naphthyridin-1-yl)oxy)-5-(4-methyl-7H-pyrrolo[2,3-d]pyrimidin-7-yl)cyclopentane-1,2-diol] | 6.74 |
| Cc1ncnc2c1ccn2[C@@H]1C[C@H](Oc2ccc(Cl)cc2OCCN)[C@@H](O)[C@H]1O [Example 153, (1S,2S,3S,5R)-3-(2-(2-aminoethoxy)-4-chlorophenoxy)-5-(4-methyl-7H-pyrrolo[2,3-d]pyrimidin-7-yl)cyclopentane-1,2-diol] | 8.30 |
| Cc1ncnc2c1ccn2[C@@H]1C[C@H](Oc2cc(F)c(F)cc2OCCN)[C@@H](O)[C@H]1O [Example 152, (1S,2S,3S,5R)-3-(2-(2-aminoethoxy)-4,5-difluorophenoxy)-5-(4-methyl-7H-pyrrolo[2,3-d]pyrimidin-7-yl)cyclopentane-1,2-diol] | 8.10 |
| Cc1nc(N)nc(N(C)[C@@H]2C[C@H]([C@@H](O)c3ccc(F)c(F)c3)[C@@H](O)[C@H]2O)n1 [Example 42, (1R,2S,3R,5R)-3-[(4-amino-6-methyl-1,3,5-triazin-2-yl)(methyl)amino]-5-[(R)-(3,4-difluorophenyl) (hydroxy)methyl]cyclopentane-1,2-diol] | 5.86 |
| CCOc1nc(O[C@H]2C[C@@H](n3ccc4c(C)ncnc43)[C@H](O)[C@@H]2O)c2c(c1F)CCNC2 [Example 192, (1S,2S,3S,5R)-3-((3-ethoxy-4-fluoro-5,6,7,8-tetrahydro-2,7-naphthyridin-1-yl)oxy)-5-(4-methyl-7H-pyrrolo[2,3-d]pyrimidin-7-yl)cyclopentane-1,2-diol] | 7.26 |
| Cc1ncnc2c1ccn2[C@@H]1C[C@H](Oc2cccc3c2CCNC3)[C@@H](O)[C@H]1O [Example 80, (1S,2S,3R,5S)-3-(4-methyl-7H-pyrrolo[2,3-d]pyrimidin-7-yl)-5-((1,2,3,4-tetrahydroisoquinolin-5-yl)oxy)cyclopentane-1,2-diol] | 6.89 |
| Cc1ncnc2c1ccn2[C@@H]1C[C@H](Oc2ccc(F)c(F)c2CN)[C@@H](O)[C@H]1O [Example 145, (1S,2S,3S,5R)-3-(2-(aminomethyl)-3,4-difluorophenoxy)-5-(4-methyl-7H-pyrrolo[2,3-d]pyrimidin-7-yl)cyclopentane-1,2-diol] | 7.96 |
| Cc1ncnc2c1ccn2[C@@H]1C[C@H]([C@H](O)c2ccc(F)cc2)[C@@H](O)[C@H]1O [Example 9, (1S,2R,3R,5R)-3-[(S)-(4-fluorophenyl) (hydroxy)methyl]-5-(4-methyl-7H-pyrrolo[2,3-d]pyrimidin-7-yl)cyclopentane-1,2-diol] | 7.22 |
| CN1Cc2cccc(O[C@H]3C[C@@H](n4cc(F)c5c(N)ncnc54)[C@H](O)[C@@H]3O)c2C1 [Example 115, (1S,2S,3R,5S)-3-(4-amino-5-fluoro-7H-pyrrolo[2,3-d]pyrimidin-7-yl)-5-[(2-methyl-2,3-dihydro-1H-isoindol-4-yl)oxy]cyclopentane-1,2-diol] | 6.83 |
| CO[C@H]1C[C@@H](n2ccc3c(C)ncnc32)[C@H](O)[C@@H]1O (racemic) [Example 59, (+/−)-(1S,2S,3S,5R)-3-methoxy-5-(4-methyl-7H-pyrrolo[2,3-d]pyrimidin-7-yl)cyclopentane-1,2-diol] | 5.24 |

— US10709709B2, “Substituted carbonucleoside derivatives useful as anticancer agents” (Pfizer Inc., priority 2016, dated 2020)
